Where two headings read alike, the source gives them in different places.
Legend:
purified ovine COX-1 = target: T1, purified ovine COX-1 (Ovis aries, UniProt P05979); assay: COX Fluorescent Inhibitor Screening Assay Kit, COX-1
T1 sequence (P05979 25-600): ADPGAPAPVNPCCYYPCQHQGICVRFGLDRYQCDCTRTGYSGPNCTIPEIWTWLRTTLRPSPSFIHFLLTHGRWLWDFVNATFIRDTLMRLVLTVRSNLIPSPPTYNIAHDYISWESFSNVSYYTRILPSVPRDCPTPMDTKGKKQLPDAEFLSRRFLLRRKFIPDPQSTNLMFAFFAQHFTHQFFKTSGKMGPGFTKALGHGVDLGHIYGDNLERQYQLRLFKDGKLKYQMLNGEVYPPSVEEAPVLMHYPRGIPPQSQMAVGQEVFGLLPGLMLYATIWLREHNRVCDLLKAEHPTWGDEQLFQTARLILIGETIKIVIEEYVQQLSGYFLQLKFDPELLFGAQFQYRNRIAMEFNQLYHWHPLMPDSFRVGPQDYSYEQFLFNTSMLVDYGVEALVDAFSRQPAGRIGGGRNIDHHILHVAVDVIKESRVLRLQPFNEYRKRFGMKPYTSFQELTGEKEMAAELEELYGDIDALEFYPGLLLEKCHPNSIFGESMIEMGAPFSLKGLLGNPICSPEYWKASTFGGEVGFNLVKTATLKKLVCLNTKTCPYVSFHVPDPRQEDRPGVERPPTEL
Description: 7.4.1 COX inhibition assay
The COX inhibition potency against ovine COX-1 and human COX-2 was determined using the
fluorescence-based COX assay ’COX Fluorescent Inhibitor Screening Assay Kit‘ (catalog number
reported by us.7 In brief, as a measure of COX mediated conversion of arachidonic acid to PG H2 in the
presence of different inhibitor concentrations this assay utilizes the peroxidase component of COX and
analyzes the formation of fluorescent resorufin. All compounds were assayed in a concentration range
of 10 nM to 100 μM, and every inhibitor concentration was assayed in duplicate.
as internal control. IC50 values were estimated using a nonlinear logistic regression ﬁtting procedure
(sigmoidal dose−response model) with Prism Software.

recombinant human COX-2 = target: T2, recombinant human COX-2 (Homo sapiens, UniProt P35354); assay: COX Fluorescent Inhibitor Screening Assay Kit, COX-2; assay type: biochemical; settings: for Selectivity index: IC50 (COX-1)/IC50 (COX-2)
T2 construct: purchased Cayman Chemical, Ann Arbor, MI 700100
T2 sequence (P35354 18-604): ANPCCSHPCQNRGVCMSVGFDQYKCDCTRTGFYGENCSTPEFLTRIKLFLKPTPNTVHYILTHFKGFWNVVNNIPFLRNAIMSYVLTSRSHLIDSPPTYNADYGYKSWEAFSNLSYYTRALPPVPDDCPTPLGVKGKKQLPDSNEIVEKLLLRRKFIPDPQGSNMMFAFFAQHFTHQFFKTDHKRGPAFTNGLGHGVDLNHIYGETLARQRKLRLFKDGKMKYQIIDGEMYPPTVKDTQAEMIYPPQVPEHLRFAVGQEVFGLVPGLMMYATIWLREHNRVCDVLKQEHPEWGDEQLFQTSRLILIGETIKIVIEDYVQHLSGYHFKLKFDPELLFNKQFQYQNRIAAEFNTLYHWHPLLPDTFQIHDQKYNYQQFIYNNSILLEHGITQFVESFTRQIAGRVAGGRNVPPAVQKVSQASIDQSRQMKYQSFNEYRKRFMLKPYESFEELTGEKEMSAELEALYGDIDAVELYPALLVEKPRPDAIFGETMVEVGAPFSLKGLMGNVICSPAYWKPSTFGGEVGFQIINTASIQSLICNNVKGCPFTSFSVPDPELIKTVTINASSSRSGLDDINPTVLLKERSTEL

[1] = Metabolic stability in vivo: blood clearance, blood components, radiometabolites; parameters: species or system male Wistar rats; settings: for half-life: male, Wistar, rat, arterial blood, iv, 70 MBq, i.v., arterial blood samples; for half-life / Intact compound in blood plasma: rats; for Intact compound in blood plasma: radio-HPLC
log D7.4 by HPLC method = assay type: physicochemical; settings: HPLC retention on ODP-50 4B column (Shodex Asahipak); pH 7.4, HPLC-based method
[2] = Ex vivo biodistribution in healthy rats; settings: i.v., n = 8, mean ± SD; for Biodistribution BAT: brown adipose tissue; for Biodistribution WAT: white adipose tissue

Cc1ccc(-c2cc(CCF)nn2-c2ccc(S(C)(=O)=O)cc2)cc1 [5b]
IC50 (purified ovine COX-1): 38.5 µM
IC50 (recombinant human COX-2): 2.53 µM
Selectivity index (recombinant human COX-2): 15

CS(=O)(=O)c1ccc(-n2nc(CCF)cc2-c2ccccc2)cc1 [5c]
IC50 (purified ovine COX-1): > 100 µM
IC50 (recombinant human COX-2): 4.97 µM
Selectivity index (recombinant human COX-2): >20

Cc1ccc(-c2cc(CCF)n(-c3ccc(S(C)(=O)=O)cc3)n2)cc1 [5d]
IC50 (purified ovine COX-1): > 100 µM
IC50 (recombinant human COX-2): > 100 µM

[2H]C([2H])([18F])c1cc(-c2ccc(C)cc2)n(-c2ccc(S(C)(=O)=O)cc2)n1 [[D2,^18F]5a]
half-life ([1]; read-out: t1/2 distribution (blood clearance of intact compound)): 1.3 min
half-life ([1]; read-out: t1/2 elimination (blood clearance of intact compound)): 17 min
Radioactivity distribution in blood components: erythrocytes ([1]; rat blood, 60 min p.i., + TCA): 18%
Radioactivity distribution in blood components: plasma ([1]; rat blood, 60 min p.i., + TCA): 73%
Radioactivity distribution in blood components: plasma supernatant ([1]; rat blood, 60 min p.i., + TCA): 39%
Radioactivity distribution in blood components: plasma pellet (bound to plasma proteins) ([1]; rat blood, 60 min p.i., + TCA precipitation): 29%
Radioactivity distribution in blood components: erythrocytes ([1]; rat blood, 60 min p.i., - TCA): 16%
Radioactivity distribution in blood components: plasma ([1]; rat blood, 60 min p.i., - TCA): 70%
Radioactivity distribution in blood components: plasma pellet ([1]; rat blood, 60 min p.i., - TCA): 1%
Radioactivity distribution in blood components: plasma supernatant ([1]; rat blood, 60 min p.i., - TCA): 73%
Intact compound in blood plasma ([1]; 20 min p.i.): 54%
Intact compound in blood plasma ([1]; 60 min p.i.): 52%
chromatographic logD (log D7.4 by HPLC method): 2.72
Biodistribution BAT ([2]; 5 min p.i.): 3.31 ± 0.56 SUV
Biodistribution BAT ([2]; 60 min p.i.): 1.21 ± 0.11 SUV
Biodistribution adrenals ([2]; 5 min p.i.): 3.28 ± 0.52 SUV
Biodistribution blood ([2]; 5 min p.i.): 0.42 ± 0.04 SUV
Biodistribution brain ([2]; 5 min p.i.): 0.54 ± 0.12 SUV
Biodistribution femur ([2]; 5 min p.i.): 0.84 ± 0.09 SUV
Biodistribution harderian gland ([2]; 5 min p.i.): 1.94 ± 0.14 SUV
Biodistribution heart ([2]; 5 min p.i.): 0.76 ± 0.12 SUV
Biodistribution intestine ([2]; 5 min p.i.): 10.14 ± 1.96 %ID
Biodistribution kidneys ([2]; 5 min p.i.): 1.58 ± 0.24 SUV
Biodistribution liver ([2]; 5 min p.i.): 4.16 ± 0.29 SUV
Biodistribution lung ([2]; 5 min p.i.): 0.92 ± 0.14 SUV
Biodistribution muscle ([2]; 5 min p.i.): 0.52 ± 0.08 SUV
Biodistribution pancreas ([2]; 5 min p.i.): 1.37 ± 0.13 SUV
Biodistribution skin & hair ([2]; 5 min p.i.): 0.9 ± 0.15 SUV
Biodistribution spleen ([2]; 5 min p.i.): 0.56 ± 0.1 SUV
Biodistribution stomach ([2]; 5 min p.i.): 1.14 ± 0.57 %ID
Biodistribution testes ([2]; 5 min p.i.): 0.48 ± 0.04 SUV
Biodistribution thymus ([2]; 5 min p.i.): 0.95 ± 0.08 SUV
Biodistribution thyroid gland ([2]; 5 min p.i.): 0.95 ± 0.18 SUV
Biodistribution urine (calc.) ([2]; 5 min p.i.): 0.15 ± 1.91 %ID
Biodistribution adrenals ([2]; 60 min p.i.): 0.91 ± 0.15 SUV
Biodistribution blood ([2]; 60 min p.i.): 0.11 ± 0.01 SUV
Biodistribution brain ([2]; 60 min p.i.): 0.11 ± 0.02 SUV
Biodistribution femur (femur uptake, 18F-defluorination) ([2]; 60 min p.i.): 2.6 ± 0.3 SUV
Biodistribution harderian gland ([2]; 60 min p.i.): 0.5 ± 0.08 SUV
Biodistribution heart ([2]; 60 min p.i.): 0.16 ± 0.03 SUV
Biodistribution intestine ([2]; 60 min p.i.): 33.02 ± 3.53 %ID
Biodistribution kidneys ([2]; 60 min p.i.): 0.47 ± 0.06 SUV
Biodistribution liver ([2]; 60 min p.i.): 0.92 ± 0.19 SUV
Biodistribution lung ([2]; 60 min p.i.): 0.21 ± 0.03 SUV
Biodistribution muscle ([2]; 60 min p.i.): 0.19 ± 0.07 SUV
Biodistribution pancreas ([2]; 60 min p.i.): 0.62 ± 0.37 SUV
Biodistribution skin & hair ([2]; 60 min p.i.): 0.25 ± 0.04 SUV
Biodistribution spleen ([2]; 60 min p.i.): 0.22 ± 0.12 SUV
Biodistribution stomach ([2]; 60 min p.i.): 1.19 ± 0.49 %ID
Biodistribution testes ([2]; 60 min p.i.): 0.21 ± 0.04 SUV
Biodistribution thymus ([2]; 60 min p.i.): 0.21 ± 0.04 SUV
Biodistribution thyroid gland ([2]; 60 min p.i.): 0.45 ± 0.06 SUV
Biodistribution urine (calc.) ([2]; 60 min p.i.): 9.12 ± 3.68 %ID
Biodistribution WAT ([2]; 5 min p.i.): 2.79 ± 1.06 SUV
Biodistribution WAT ([2]; 60 min p.i.): 2.4 ± 0.28 SUV

[2H]C([2H])(F)c1cc(-c2ccc(C)cc2)n(-c2ccc(S(C)(=O)=O)cc2)n1 [[D2]5a]
IC50 (purified ovine COX-1): > 100 µM
IC50 (recombinant human COX-2): 0.97 µM
Selectivity index (recombinant human COX-2): >103

Reference: article PMC9057277 (RSC Advances, 2020)
